{"source": "patent US10016422B2", "about": "“Nanocarrier drug delivery platform” (Oregon State University, priority 2015, dated 2018)", "assay": "Intrinsic aqueous solubility and solubility increase in nanoparticles", "format": "physicochemical", "conditions": "for solubility: aqueous medium; for increase of solubility by incorporation into the nanoparticles: versus intrinsic aqueous solubility", "data": [{"molecule": "O=c1cc(N2CCOCC2)oc2c(-c3ccccc3)cccc12", "note": "[LY, LY294002]", "values": [{"measurement": "solubility", "result": 243, "unit": "µg/mL"}, {"measurement": "increase of solubility by incorporation into the nanoparticles", "result": 8, "unit": "fold"}]}, {"molecule": "CC(C)(C)c1nc(-c2cccc(NS(=O)(=O)c3c(F)cccc3F)c2F)c(-c2ccnc(N)n2)s1", "note": "[DAB, dabrafenib]", "values": [{"measurement": "solubility", "result": 1, "unit": "µg/mL"}, {"measurement": "increase of solubility by incorporation into the nanoparticles", "result": 1000, "unit": "fold"}]}, {"molecule": "CC(=O)O[C@@]12CO[C@@H]1C[C@H](O)[C@@]1(C)C(=O)[C@H](O)C3=C(C)[C@@H](OC(=O)[C@H](O)[C@@H](NC(=O)OC(C)(C)C)c4ccccc4)C[C@@](O)([C@@H](OC(=O)c4ccccc4)[C@H]21)C3(C)C", "note": "[DTX, docetaxel]", "values": [{"measurement": "increase of solubility by incorporation into the nanoparticles", "result": 455, "unit": "fold"}]}, {"molecule": "CO[C@H]1C[C@@H]2CC[C@@H](C)[C@@](O)(O2)C(=O)C(=O)N2CCCC[C@H]2C(=O)O[C@H]([C@H](C)C[C@@H]2CC[C@@H](OCCO)[C@H](OC)C2)CC(=O)[C@H](C)/C=C(\\C)[C@@H](O)[C@@H](OC)C(=O)[C@H](C)C[C@H](C)/C=C/C=C/C=C/1C", "note": "[EVR, everolimus]", "values": [{"measurement": "solubility", "result": 9.6, "unit": "µg/mL"}, {"measurement": "increase of solubility by incorporation into the nanoparticles", "result": 201, "unit": "fold"}]}, {"molecule": "CC(=O)Nc1cccc(-n2c(=O)n(C3CC3)c(=O)c3c(Nc4ccc(I)cc4F)n(C)c(=O)c(C)c32)c1", "note": "[TRA, trametinib]", "values": [{"measurement": "solubility", "result": 6, "unit": "µg/mL"}, {"measurement": "increase of solubility by incorporation into the nanoparticles", "result": 221, "unit": "fold"}]}]}
